Consider 3 molecules from publication PMC9576799, “Discovery of small molecule inhibitors that effectively disrupt IQGAP1-Cdc42 interaction in breast cancer cells” (Scientific Reports, 2022).

One assay deals with MCF7-siIQ8 cells. As to the kind of experiment: CellTiter-Glo cell viability assay, IQGAP1 knockdown MCF7. Conditions: Homo sapiens. The format is cell-based. On the procedure:
Selected hit compounds were tested in CellTiterGlo cell viability assays to determine their cytotoxic effect on IQGAP1 knockout and control MCF7 cells. Prior to the assay, we assessed cell proliferation to keep both cell lines at similar exponential growth rates within 80 h after plating. For this purpose, the cells were plated onto 384-well clear bottom black plates (Perkin Elmer, Ultra) at various cell densities (between 625 and 10,000 cells/50µL/well), spun down for 15 s, and placed into Incucyte SX5 (Essen BioScience) for automated bright-field channel reading every 4 h. […] For the cytotoxicity assays, cells were harvested with 0.05% trypsin, spun down at 125xg for 5 min, re-suspended in fresh DMEM supplemented with 5% (v/v) FBS, and seeded into 1536-well white solid bottom tissue culture-treated plates (Greiner One, #789173-F) at 600 cells/5µL/well for knockout cells and 300 cells/5µL/well for control cells using a Multidrop Combi dispenser (Thermo Fisher Scientific Inc.). […]
Plates and reagents were equilibrated to room temperature and then 5 µL/well of CellTiter Glo (Promega, #G7570) reagent was dispensed with a Multidrop Combi dispenser to the assay plates. After incubation for 10 min at ambient temperature, the luminescence signal was read with a ViewLux instrument (Perkin Elmer) with one second exposure. […]

The subject of assay [1] is active (GTP-bound) Cdc42 in MDA-MB-231 cells. As to the kind of experiment: Assay of active Cdc42 (GST-WASP-GBD pulldown). The format is cell-based, human. Conditions: 50 µM for 2 h, 100 ng/mL EGF 10 min. Here is the method:
The GST-WASP-GBD (GTPase-binding-domain) has been described previously. Briefly, GST-WASP-GBD was generated by polymerase chain reaction, digested, and ligated into a pGEX-KG vector[52]. Following expression of the GST fusion protein in E. coli, purification was performed by glutathione-Sepharose affinity chromatography. MDA-MB-231 cells were grown in DMEM with 10% FBS to 60% confluence. After 2 h, 100 ng/mL EGF or vehicle was added for 10 min. After washing with 1xPBS, cells were lysed in lysis buffer (20 mM Hepes, pH 7.4, 150 mM NaCl, 1% NP-40, 20 mM NaF, and 20uM GTP, containing halt protease & phosphatase inhibitor cocktail (Thermo Scientific #1,861,281). Lysates were precleared with glutathione-Sepharose for 1 h at 4 °C and equal amounts of protein was incubated with either GST (control) or GST-WASP-GBD for 2 h at 4 °C. Complexes were collected with glutathione-Sepharose and washed 5× with lysis buffer. Bound proteins were resolved by SDS-PAGE and transferred to a polyvinylidene difluoride membrane. The membrane was cut immediately below the 37 kDa molecular weight marker. The top portion of the membrane was discarded and the bottom portion was probed with anti-Cdc42 antibody (BD Transduction Laboratories #610929). Aliquots of whole cell lysate were processed in parallel. […] The intensities of the Cdc42 and tubulin bands were quantified using Image Studio (LI-COR Biosciences).

SMILES strings stand for the structures. pIC50: −log10 of the molar value.

As to `Cc1cccc(NC(=O)c2c(NC(=O)C(F)(F)F)sc3c2CCCCC3)c1` [NCGC00098561], the Emax in the assay on MCF7-siIQ8 cells (MCF7, 72 h, read-out: cytotoxicity efficacy) was around 100%. For the same molecule, in the assay on MCF7-siIQ8 cells (IQGAP1 knockdown MCF7-siIQ8 cells, 72 h, read-out: cytotoxicity EC50), the pIC50 is 5.65.
In the case of `CCN1CCN(c2ncc3c(n2)CCN(Cc2cc(Br)cs2)C3)CC1` [NCGC00131308], the “effect on EGF-induced active (GTP-) Cdc42” value in assay [1] is given as “abrogated the increase in GTP-Cdc42 induced by EGF”.
Same read-out and setting: the same measure for `CCc1ccccc1Nc1ncnc2c1cnn2-c1ccc(Cl)cc1` [NCGC00138812]: “did not appreciably reduce activation of Cdc42 by EGF”.
